Measured values reported in US20180318287A1, “Imidazo[4,5-c]quinolin-2-one Compounds and Their Use in Treating Cancer” (ASTRAZENECA AB, priority 2015, published 2018).

Legend:
ATM kinase = molecular target: T1, ATM kinase (Homo sapiens, UniProt Q13315); assay: Assay a): ATM cellular potency (pATM Ser1981 in irradiated HT29 cells); format: cell-based; conditions: HT29 cells, X-ray irradiation, pATM Ser1981; Table 2; read-out: Assay a) ATM Cell IC50
T1 construct: endogenous in cells; host or cells: HT29 cells (ECACC #85061109)
Experimental: Most ATM molecules in the cell are rapidly phosphorylated on this site after doses of radiation as low as 0.5 Gy, and binding of a phosphospecific antibody is detectable after the introduction of only a few DNA double-strand breaks in the cell.
The rationale of the p ATM assay is to identify inhibitors of ATM in cells. HT29 cells are incubated with test compounds for 1 hr prior to X-ray-irradiation. 1 h later the cells are fixed and stained for p ATM (Ser1981). The fluorescence is read on the arrayscan imaging platform.
The following morning compounds of Formula (I) in 100% DMSO were added to assay plates by acoustic dispensing. After 1 h incubation at 37° C. and 5% CO2, plates (up to 6 at a time) were irradiated using the X-RAD 320 instrument (PXi) with equivalent to ˜600cGy. Plates were returned to the incubator for a further 1 h. […] Then 20 μl of 0.1% Triton X100 in PBS was added and incubated for 20 minutes at r.t., to permeabalise cells. Then the plates were washed once with […] PBS, using a Biotek EL405 plate washer.
After 1 h incubation at r.t., the plates were washed three times with 50 μl/well PBS, using a Biotek EL405 plate washer, and plates were sealed and kept in PBS at 4° C. until read. Plates were read using an ArrayScan VTI instrument, using an XF53 filter with 10× objective.

ATR kinase = molecular target: T2, ATR kinase (Homo sapiens, UniProt Q13535); assay: Assay b): ATR cellular potency (pChk1 Ser345 in HT29 cells after 4NQO); format: cell-based; conditions: HT29 cells, 4NQO, pChk1 Ser345; Table 2; read-out: Assay b) ATR Cell IC50
T2 construct: endogenous in cells; host or cells: HT29 cells (ECACC #85061109)
Experimental: ATR is a PI 3-kinase-related kinase which phosphorylates multiple substrates on serine or threonine residues in response to DNA damage during or replication blocks. Chk1, a downstream protein kinase of ATR, plays a key role in DNA damage checkpoint control. Activation of Chk1 involves phosphorylation of Ser317 and Ser345 (the latter regarded as the preferential target for phosphorylation/activation by ATR).
The following morning compound of Formula (I) in 100% DMSO were added to assay plates by acoustic dispensing. After 1 h incubation at 37° C. and 5% CO2, 40 nl of 3 mM 4NQO in 100% DMSO was added to all wells by acoustic dispensing, except minimum control wells which were left untreated with 4NQO to generate a null response control. Plates were returned to the incubator for a further 1 h. […] Then 20 μl of 0.1% Triton X100 in PBS was added and incubated for 10 minutes at r.t., to permeabalise cells. Then the plates were washed once with 50 μl/well PBS, using a Biotek EL405 plate washer.
After 2 h incubation at r.t., the plates were washed three times with 50 μl/well PBS, using a Biotek EL405 plate washer, and plates were then sealed with black plate seals until read. Plates were read using an ArrayScan VTI instrument, using an XF53 filter with 10× objective.

T2 sequence (Q13535 whole entry): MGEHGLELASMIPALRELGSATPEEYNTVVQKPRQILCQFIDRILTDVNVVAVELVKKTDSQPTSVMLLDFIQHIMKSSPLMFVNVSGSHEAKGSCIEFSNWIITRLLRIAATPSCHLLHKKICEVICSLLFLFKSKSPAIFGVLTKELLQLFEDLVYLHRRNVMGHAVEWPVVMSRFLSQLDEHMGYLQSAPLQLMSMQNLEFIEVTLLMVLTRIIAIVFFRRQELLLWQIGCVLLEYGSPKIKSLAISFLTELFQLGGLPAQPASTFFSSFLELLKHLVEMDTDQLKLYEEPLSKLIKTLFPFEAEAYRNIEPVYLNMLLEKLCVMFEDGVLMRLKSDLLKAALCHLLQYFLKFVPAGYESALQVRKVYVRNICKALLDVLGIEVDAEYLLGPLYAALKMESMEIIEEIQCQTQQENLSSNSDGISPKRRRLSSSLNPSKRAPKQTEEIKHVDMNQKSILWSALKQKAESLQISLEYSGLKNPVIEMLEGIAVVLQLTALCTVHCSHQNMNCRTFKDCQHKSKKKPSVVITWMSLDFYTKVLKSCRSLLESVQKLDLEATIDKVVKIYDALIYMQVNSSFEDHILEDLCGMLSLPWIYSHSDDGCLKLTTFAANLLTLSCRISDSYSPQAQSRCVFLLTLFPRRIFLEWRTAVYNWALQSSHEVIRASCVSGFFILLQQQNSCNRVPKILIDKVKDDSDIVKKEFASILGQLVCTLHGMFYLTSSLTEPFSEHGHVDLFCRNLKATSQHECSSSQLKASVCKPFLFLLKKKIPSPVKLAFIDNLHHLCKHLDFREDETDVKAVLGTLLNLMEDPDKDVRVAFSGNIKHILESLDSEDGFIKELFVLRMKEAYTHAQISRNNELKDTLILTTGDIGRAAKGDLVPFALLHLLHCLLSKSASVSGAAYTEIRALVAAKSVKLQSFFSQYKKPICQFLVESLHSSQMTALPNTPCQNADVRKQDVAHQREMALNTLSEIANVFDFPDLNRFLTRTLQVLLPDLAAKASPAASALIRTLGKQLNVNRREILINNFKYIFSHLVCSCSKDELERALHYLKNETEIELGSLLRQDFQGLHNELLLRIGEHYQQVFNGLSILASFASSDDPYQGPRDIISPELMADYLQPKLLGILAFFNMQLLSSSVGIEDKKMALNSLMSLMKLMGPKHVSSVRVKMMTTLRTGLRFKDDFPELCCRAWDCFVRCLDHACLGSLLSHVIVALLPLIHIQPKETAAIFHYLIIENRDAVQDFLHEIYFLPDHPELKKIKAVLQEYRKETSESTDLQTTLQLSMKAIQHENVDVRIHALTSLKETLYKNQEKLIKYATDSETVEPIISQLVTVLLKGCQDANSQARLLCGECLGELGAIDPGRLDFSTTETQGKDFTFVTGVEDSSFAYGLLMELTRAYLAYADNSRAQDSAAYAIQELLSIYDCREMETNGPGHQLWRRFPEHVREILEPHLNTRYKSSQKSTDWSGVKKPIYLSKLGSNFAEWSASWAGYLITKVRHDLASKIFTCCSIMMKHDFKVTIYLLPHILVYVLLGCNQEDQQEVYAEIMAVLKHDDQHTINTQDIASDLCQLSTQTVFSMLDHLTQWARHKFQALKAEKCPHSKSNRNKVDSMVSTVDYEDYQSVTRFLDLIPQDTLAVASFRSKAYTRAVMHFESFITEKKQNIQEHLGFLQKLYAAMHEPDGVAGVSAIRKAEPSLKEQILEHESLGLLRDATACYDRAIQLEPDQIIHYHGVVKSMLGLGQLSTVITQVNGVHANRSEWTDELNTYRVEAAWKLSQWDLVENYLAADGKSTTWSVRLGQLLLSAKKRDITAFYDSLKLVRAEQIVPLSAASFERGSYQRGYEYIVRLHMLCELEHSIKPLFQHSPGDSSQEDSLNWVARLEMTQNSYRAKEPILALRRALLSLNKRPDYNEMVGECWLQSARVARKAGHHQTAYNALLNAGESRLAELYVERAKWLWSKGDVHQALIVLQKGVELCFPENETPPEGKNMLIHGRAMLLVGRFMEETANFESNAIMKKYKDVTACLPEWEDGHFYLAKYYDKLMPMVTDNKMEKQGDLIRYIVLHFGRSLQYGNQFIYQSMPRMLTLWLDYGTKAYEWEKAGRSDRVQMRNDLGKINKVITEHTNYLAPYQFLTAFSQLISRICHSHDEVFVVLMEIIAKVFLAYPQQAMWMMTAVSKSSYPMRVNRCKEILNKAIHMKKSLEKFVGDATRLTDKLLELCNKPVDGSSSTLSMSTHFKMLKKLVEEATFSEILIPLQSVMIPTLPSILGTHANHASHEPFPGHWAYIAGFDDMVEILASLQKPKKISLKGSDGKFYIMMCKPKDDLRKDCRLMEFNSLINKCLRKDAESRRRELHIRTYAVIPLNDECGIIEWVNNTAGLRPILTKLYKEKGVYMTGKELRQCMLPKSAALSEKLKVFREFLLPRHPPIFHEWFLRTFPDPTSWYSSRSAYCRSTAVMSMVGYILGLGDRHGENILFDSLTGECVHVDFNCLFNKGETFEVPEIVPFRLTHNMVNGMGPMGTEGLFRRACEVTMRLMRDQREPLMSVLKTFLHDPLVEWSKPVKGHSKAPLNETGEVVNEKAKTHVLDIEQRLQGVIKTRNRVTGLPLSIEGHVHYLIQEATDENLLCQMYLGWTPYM
T2 sequence (Q8WXE1 whole entry partner): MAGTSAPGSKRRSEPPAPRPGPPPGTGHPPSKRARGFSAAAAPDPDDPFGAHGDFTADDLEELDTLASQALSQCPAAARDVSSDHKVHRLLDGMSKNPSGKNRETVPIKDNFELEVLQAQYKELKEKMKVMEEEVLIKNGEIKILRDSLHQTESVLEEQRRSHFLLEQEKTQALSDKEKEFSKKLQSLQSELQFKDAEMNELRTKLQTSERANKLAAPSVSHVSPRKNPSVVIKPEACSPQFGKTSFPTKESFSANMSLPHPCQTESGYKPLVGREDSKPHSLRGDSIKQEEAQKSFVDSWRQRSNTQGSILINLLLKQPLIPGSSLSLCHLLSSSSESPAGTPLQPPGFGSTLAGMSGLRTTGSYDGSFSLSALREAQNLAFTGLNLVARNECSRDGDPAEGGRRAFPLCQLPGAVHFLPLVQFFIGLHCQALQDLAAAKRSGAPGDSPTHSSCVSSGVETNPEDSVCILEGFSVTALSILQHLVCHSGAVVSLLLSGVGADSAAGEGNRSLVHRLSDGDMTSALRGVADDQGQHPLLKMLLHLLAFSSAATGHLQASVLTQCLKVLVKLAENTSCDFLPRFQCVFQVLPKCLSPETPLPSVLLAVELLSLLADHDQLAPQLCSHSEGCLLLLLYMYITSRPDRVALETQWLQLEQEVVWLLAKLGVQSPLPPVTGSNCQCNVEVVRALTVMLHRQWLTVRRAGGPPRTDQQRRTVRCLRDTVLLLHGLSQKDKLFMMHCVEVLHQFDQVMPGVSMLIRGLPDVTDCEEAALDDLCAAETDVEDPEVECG

| SMILES | IC50 (ATM kinase) [nM] | IC50 (ATR kinase) [nM] |
| --- | --- | --- |
| CO[C@@H]1CCC[C@H](n2c(=O)n(C)c3cnc4ccc(-c5ccc(OCCCN(C)C)cc5)cc4c32)C1 (relative stereo) [Example 32, 8-[4-[3-(dimethylamino)propoxy]phenyl]-1-[cis-3-methoxycyclohexyl]-3-methyl-imidazo[4,5-c]quinolin-2-one] | 2.37 | > 30000 |
| CO[C@H]1CC[C@H](n2c(=O)n(C)c3cnc4cc(F)c(-c5ccc(OCCCN(C)C)cc5)cc4c32)C1 (single isomer, unassigned) [Example 13, 8-[4-[3-(dimethylamino)propoxy]phenyl]-7-fluoro-1-[trans-3-methoxycyclopentyl]-3-methyl-imidazo[4,5-c]quinolin-2-one] | 1.63 | > 30000 |
| CO[C@@H]1CC[C@@H](n2c(=O)n(C)c3cnc4cc(F)c(-c5ccc(OCCCN(C)C)cc5)cc4c32)C1 (single isomer, unassigned) [Example 14, 8-[4-[3-(dimethylamino)propoxy]phenyl]-7-fluoro-1-[trans-3-methoxycyclopentyl]-3-methyl-imidazo[4,5-c]quinolin-2-one] | 1.37 | > 29400 |
| CO[C@H]1CCC[C@H](n2c(=O)n(C)c3cnc4ccc(-c5ccc(OCCCN(C)C)cc5)cc4c32)C1 (single isomer, unassigned) [Example 28, 8-[4-[3-(dimethylamino)propoxy]phenyl]-1-[trans-3-methoxycyclohexyl]-3-methyl-imidazo[4,5-c]quinolin-2-one] | 0.285 | 11300 |
| CO[C@@H]1CC[C@H](n2c(=O)n(C)c3cnc4cc(F)c(-c5ccc(OCCCN(C)C)cc5)cc4c32)C1 (single isomer, unassigned) [Example 36, 8-[4-[3-(dimethylamino)propoxy]phenyl]-7-fluoro-1-[cis-3-methoxycyclopentyl]-3-methyl-imidazo[4,5-c]quinolin-2-one] | 5.77 | > 30000 |
| CC(C)n1c(=O)n(C)c2cnc3ccc(-c4ccc(OCCCN(C)C)cc4)cc3c21 [Example 1, 8-[4-[3-(Dimethylamino)propoxy]phenyl]-1-isopropyl-3-methyl-imidazo[4,5-c]quinolin-2-one] |  | > 30000 |
| CC(C)n1c(=O)n(C)c2cnc3ccc(-c4ccc(OCCCN5CCC5)cc4)cc3c21 [Example 3, 8-[4-[3-(azetidin-1-yl)propoxy]phenyl]-1-isopropyl-3-methyl-imidazo[4,5-c]quinolin-2-one] | 0.173 | > 30000 |
| CN(C)CCCOc1ccc(-c2cc3c(cc2F)ncc2c3n([C@H]3CCCOC3)c(=O)n2C)cc1 [Example 10, 8-[4-[3-(dimethylamino)propoxy]phenyl]-7-fluoro-3-methyl-1-[(3S)-tetrahydropyran-3-yl]imidazo[4,5-c]quinolin-2-one] | 3.92 | > 30000 |
| CO[C@H]1CC[C@H](n2c(=O)n(C)c3cnc4ccc(-c5ccc(OCCCN(C)C)cc5)cc4c32)CC1 [Example 26, 8-[4-[3-(dimethylamino)propoxy]phenyl]-1-(trans-4-methoxycyclohexyl)-3-methyl-imidazo[4,5-c]quinolin-2-one] | 0.467 | > 30000 |
| Cn1c(=O)n(C2CCOCC2)c2c3cc(-c4ccc(OCCCN5CCCC5)cc4)c(F)cc3ncc21 [Example 46, 7-fluoro-3-methyl-8-[4-(3-pyrrolidin-1-ylpropoxy)phenyl]-1-tetrahydropyran-4-yl-imidazo[4,5-c]quinolin-2-one] | 2 | 16800 |

Other lines, results leading:

| IC50 (ATM kinase) [nM] | IC50 (ATR kinase) [nM] | SMILES |
| --- | --- | --- |
| 2.29 | 19200 | CO[C@@H]1CCC[C@H](n2c(=O)n(C)c3cnc4ccc(-c5ccc(OCCCN6CCCC6)cc5)cc4c32)C1 (relative stereo) [Example 38, 1-[cis-3-methoxycyclohexyl]-3-methyl-8-[4-(3-pyrrolidin-1-ylpropoxy)phenyl]imidazo[4,5-c]quinolin-2-one] |
| 1.64 | 12800 | CO[C@H]1CCC[C@H](n2c(=O)n(C)c3cnc4ccc(-c5ccc(OCCCN(C)C)cc5)cc4c32)C1 (single isomer, unassigned) [Example 29, 8-[4-[3-(dimethylamino)propoxy]phenyl]-1-[trans-3-methoxycyclohexyl]-3-methyl-imidazo[4,5-c]quinolin-2-one] |
| 0.706 | 10900 | CO[C@H]1CCC[C@H](n2c(=O)n(C)c3cnc4ccc(-c5ccc(OCCCN6CCCC6)cc5)cc4c32)C1 (single isomer, unassigned) [Example 31, 1-[trans-3-methoxycyclohexyl]-3-methyl-8-[4-(3-pyrrolidin-1-ylpropoxy)phenyl]imidazo[4,5-c]quinolin-2-one] |
| 0.984 | > 30000 | CC(C)n1c(=O)n(C)c2cnc3ccc(-c4ccc(OCCCN5CCCC5)cc4)cc3c21 [Example 2, 1-isopropyl-3-methyl-8-[4-(3-pyrrolidin-1-ylpropoxy)phenyl]imidazo[4,5-c]quinolin-2-one] |
| 0.797 | > 26000 | Cn1c(=O)n([C@@H]2CCCOC2)c2c3cc(-c4ccc(OCCCN5CCCC5)cc4)ccc3ncc21 [Example 16, 3-methyl-8-[4-(3-pyrrolidin-1-ylpropoxy)phenyl]-1-[(3R)-tetrahydropyran-3-yl]imidazo[4,5-c]quinolin-2-one] |
| 0.458 | > 10000 | CO[C@H]1CC[C@H](n2c(=O)n(C)c3cnc4ccc(-c5ccc(OCCCN6CCCC6)cc5)cc4c32)CC1 [Example 22, 1-(trans-4-methoxycyclohexyl)-3-methyl-8-[4-(3-pyrrolidin-1-ylpropoxy)phenyl]imidazo[4,5-c]quinolin-2-one] |
| 0.492 | > 18500 | CO[C@H]1CC[C@@H](n2c(=O)n(C)c3cnc4ccc(-c5ccc(OCCCN6CCCC6)cc5)cc4c32)CC1 [Example 27, 1-(cis-4-methoxycyclohexyl)-3-methyl-8-[4-(3-pyrrolidin-1-ylpropoxy)phenyl]imidazo[4,5-c]quinolin-2-one] |
| 0.349 |  | CO[C@H]1CC[C@H](n2c(=O)n(C)c3cnc4ccc(-c5ccc(OCCCN6CCCCC6)cc5)cc4c32)C1 [Example 40, 1-[(1S,3S)-3-methoxycyclopentyl]-3-methyl-8-[4-[3-(1-piperidyl)propoxy]phenyl]imidazo[4,5-c]quinolin-2-one] |
| 0.23 | > 28800 | CO[C@H]1C[C@@H](n2c(=O)n(C)c3cnc4ccc(-c5ccc(OCCCN6CCCC6)cc5)cc4c32)C1 [Example 41, 1-(cis-3-methoxycyclobutyl)-3-methyl-8-[4-(3-pyrrolidin-1-ylpropoxy)phenyl]imidazo[4,5-c]quinolin-2-one] |
